From PubChem BioAssay AID1845199 (Molecular Pharmacology Branch, DTP, NCI, 2023)

System: 556581-035-R-J1 tumor spheroid viability, % test/control
Assay: Anticancer human tumor 556581-035-R-J1 patient-derived ovarian carcinoma cell line growth inhibition
Settings: spheroids with HUVEC and MSC; for IC50: curve of first compound; for viability, T/C: stronger effect = lower value
Method in brief: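 Complex tumor spheroids combined malignant cells with endothelial cells and mesenchymal stem cells. DNA-damaging drugs and DNA repair inhibitors were tested alone and in combination, at half-log dilutions down from clinical Cmax (top 10 microM if Cmax unknown), 0.25% DMSO final.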

[1] = second compound 1 µM, first compound 0.00949 µM
[2] = second compound 1 µM, first compound 0.03 µM
[3] = second compound 1 µM, first compound 0.0949 µM
[4] = second compound 1 µM, first compound 0.3 µM
[5] = second compound 1 µM, first compound 0.949 µM
[6] = second compound 1 µM, first compound 3 µM
[7] = second compound 3.16 µM, first compound 0.00949 µM
[8] = second compound 3.16 µM, first compound 0.03 µM
[9] = second compound 3.16 µM, first compound 0.0949 µM
[10] = second compound 3.16 µM, first compound 0.3 µM
[11] = second compound 3.16 µM, first compound 0.949 µM
[12] = second compound 3.16 µM, first compound 3 µM
[13] = second compound 10 µM, first compound 0.00949 µM
[14] = second compound 10 µM, first compound 0.03 µM
[15] = second compound 10 µM, first compound 0.0949 µM
[16] = second compound 10 µM, first compound 0.3 µM
[17] = second compound 10 µM, first compound 0.949 µM
[18] = second compound 10 µM, first compound 3 µM
[19] = second compound 31.6 µM, first compound 0.00949 µM
[20] = second compound 31.6 µM, first compound 0.03 µM
[21] = second compound 31.6 µM, first compound 0.0949 µM
[22] = second compound 31.6 µM, first compound 0.3 µM
[23] = second compound 31.6 µM, first compound 0.949 µM
[24] = second compound 31.6 µM, first compound 3 µM
[25] = second compound 100 µM, first compound 0.00949 µM
[26] = second compound 100 µM, first compound 0.03 µM
[27] = second compound 100 µM, first compound 0.0949 µM
[28] = second compound 100 µM, first compound 0.3 µM
[29] = second compound 100 µM, first compound 0.949 µM
[30] = second compound 100 µM, first compound 3 µM
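Further: spheroids exposed to compounds for 7 days before viability read.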

## CNCc1ccc(-c2cc(-c3nc(-c4ccc(S(=O)(=O)C(C)C)cc4)cnc3N)on2)cc1 + Cn1nnc2c(C(N)=O)ncn2c1=O
Second compound 1 µM
  IC50: 1670 nM
Second compound 3.16 µM
  IC50: 1560 nM
Second compound 10 µM
  IC50: 1380 nM
Second compound 31.6 µM
  IC50: 1380 nM
Second compound 100 µM
  IC50: 953 nM
[1]
  viability, T/C: 101%
[2]
  viability, T/C: 108%
[3]
  viability, T/C: 109%
[4]
  viability, T/C: 104%
[5]
  viability, T/C: 80.2%
[6]
  viability, T/C: 18.6%
[7]
  viability, T/C: 104%
[8]
  viability, T/C: 117%
[9]
  viability, T/C: 105%
[10]
  viability, T/C: 106%
[11]
  viability, T/C: 72.6%
[12]
  viability, T/C: 20%
[13]
  viability, T/C: 106%
[14]
  viability, T/C: 109%
[15]
  viability, T/C: 110%
[16]
  viability, T/C: 105%
[17]
  viability, T/C: 67.3%
[18]
  viability, T/C: 15.3%
[19]
  viability, T/C: 113%
[20]
  viability, T/C: 113%
[21]
  viability, T/C: 110%
[22]
  viability, T/C: 98.4%
[23]
  viability, T/C: 66.2%
[24]
  viability, T/C: 16.5%
[25]
  viability, T/C: 111%
[26]
  viability, T/C: 102%
[27]
  viability, T/C: 120%
[28]
  viability, T/C: 98.2%
[29]
  viability, T/C: 50.5%
[30]
  viability, T/C: 11.6%

## Cc1sc2c(c1C)C(c1ccc(Cl)cc1)=NC(CC(=O)Nc1ccc(O)cc1)c1nnc(C)n1-2 (stereo not given) + Cn1nnc2c(C(N)=O)ncn2c1=O
Second compound 1 µM
  IC50: > 3000 nM
Second compound 3.16 µM
  IC50: > 3000 nM
Second compound 10 µM
  IC50: > 3000 nM
Second compound 31.6 µM
  IC50: > 3000 nM
Second compound 100 µM
  IC50: 2700 nM
[1]
  viability, T/C: 112%
[2]
  viability, T/C: 95.6%
[3]
  viability, T/C: 82%
[4]
  viability, T/C: 76.4%
[5]
  viability, T/C: 68%
[6]
  viability, T/C: 64.5%
[7]
  viability, T/C: 101%
[8]
  viability, T/C: 97.6%
[9]
  viability, T/C: 84.8%
[10]
  viability, T/C: 75.6%
[11]
  viability, T/C: 65.5%
[12]
  viability, T/C: 61.2%
[13]
  viability, T/C: 98%
[14]
  viability, T/C: 94.6%
[15]
  viability, T/C: 82.6%
[16]
  viability, T/C: 72.6%
[17]
  viability, T/C: 68.1%
[18]
  viability, T/C: 57.5%
[19]
  viability, T/C: 96.9%
[20]
  viability, T/C: 93.9%
[21]
  viability, T/C: 82.2%
[22]
  viability, T/C: 70.7%
[23]
  viability, T/C: 65.1%
[24]
  viability, T/C: 54.3%
[25]
  viability, T/C: 99.5%
[26]
  viability, T/C: 99.2%
[27]
  viability, T/C: 79.9%
[28]
  viability, T/C: 71.5%
[29]
  viability, T/C: 59.1%
[30]
  viability, T/C: 48.5%

## Cn1ncnc1[C@H]1c2n[nH]c(=O)c3cc(F)cc(c23)N[C@@H]1c1ccc(F)cc1 + Cn1nnc2c(C(N)=O)ncn2c1=O
Second compound 1 µM
  IC50: > 3000 nM
Second compound 3.16 µM
  IC50: > 3000 nM
Second compound 10 µM
  IC50: > 3000 nM
Second compound 31.6 µM
  IC50: 1950 nM
Second compound 100 µM
  IC50: 1240 nM
[1]
  viability, T/C: 99.5%
[2]
  viability, T/C: 93.1%
[3]
  viability, T/C: 87.3%
[4]
  viability, T/C: 75.5%
[5]
  viability, T/C: 67.6%
[6]
  viability, T/C: 51.1%
[7]
  viability, T/C: 102%
[8]
  viability, T/C: 89.7%
[9]
  viability, T/C: 87.7%
[10]
  viability, T/C: 73.9%
[11]
  viability, T/C: 67.8%
[12]
  viability, T/C: 50.2%
[13]
  viability, T/C: 94%
[14]
  viability, T/C: 88.7%
[15]
  viability, T/C: 85.8%
[16]
  viability, T/C: 76.6%
[17]
  viability, T/C: 66%
[18]
  viability, T/C: 52.2%
[19]
  viability, T/C: 86.4%
[20]
  viability, T/C: 74.4%
[21]
  viability, T/C: 77.9%
[22]
  viability, T/C: 68.3%
[23]
  viability, T/C: 62.3%
[24]
  viability, T/C: 43%
[25]
  viability, T/C: 74.4%
[26]
  viability, T/C: 71.8%
[27]
  viability, T/C: 70.4%
[28]
  viability, T/C: 65.9%
[29]
  viability, T/C: 54.7%
[30]
  viability, T/C: 34%

## O=C(c1cc(Cc2n[nH]c(=O)c3ccccc23)ccc1F)N1CCN(C(=O)C2CC2)CC1 + Cn1nnc2c(C(N)=O)ncn2c1=O
Second compound 1 µM
  IC50: > 30000 nM
Second compound 3.16 µM
  IC50: > 30000 nM
Second compound 10 µM
  IC50: > 30000 nM
Second compound 31.6 µM
  IC50: > 30000 nM
Second compound 100 µM
  IC50: > 30000 nM
[3]
  viability, T/C: 99%
[4]
  viability, T/C: 100%
[5]
  viability, T/C: 102%
[6]
  viability, T/C: 90.8%
Second compound 1 µM, first compound 9.49 µM
  viability, T/C: 80.2%
Second compound 1 µM, first compound 30 µM
  viability, T/C: 71.9%
[9]
  viability, T/C: 100%
[10]
  viability, T/C: 99.8%
[11]
  viability, T/C: 95.4%
[12]
  viability, T/C: 89.9%
Second compound 3.16 µM, first compound 9.49 µM
  viability, T/C: 82.4%
Second compound 3.16 µM, first compound 30 µM
  viability, T/C: 63.9%
[15]
  viability, T/C: 98.6%
[16]
  viability, T/C: 100%
[17]
  viability, T/C: 98.7%
[18]
  viability, T/C: 89.1%
Second compound 10 µM, first compound 9.49 µM
  viability, T/C: 74.6%
Second compound 10 µM, first compound 30 µM
  viability, T/C: 64.3%
[21]
  viability, T/C: 104%
[22]
  viability, T/C: 101%
[23]
  viability, T/C: 90.3%
[24]
  viability, T/C: 85.3%
Second compound 31.6 µM, first compound 9.49 µM
  viability, T/C: 70.9%
Second compound 31.6 µM, first compound 30 µM
  viability, T/C: 62.9%
[27]
  viability, T/C: 92.7%
[28]
  viability, T/C: 83.6%
[29]
  viability, T/C: 80.2%
[30]
  viability, T/C: 70.6%
Second compound 100 µM, first compound 9.49 µM
  viability, T/C: 67.9%
Second compound 100 µM, first compound 30 µM
  viability, T/C: 54.7%
